Laboratory results as given in paper PMC9486951, “Tetramate Derivatives by Chemoselective Dieckmann Ring Closure of threo-Phenylserines and Their Antibacterial Activity” (The Journal of Organic Chemistry, 2022).
Values after ≈ are worked out from the molar mass of the structure shown. Like-named read-outs stand apart in the source and are kept apart here.

What was measured:
MDCK cell line = assay: Cytotoxicity assay (Alamar blue), MDCK; assay type: cell-based; settings: read-out: cell lines EC50, MDCK
Procedure: (§1) The selectivity of these compounds for activity against prokaryotic cells over mammalian cells was analyzed by considering their cytotoxicity against Hela, heK-293, CaCo, and MDCK […] cell lines, allowing estimation of the therapeutic ratio [EC50Hela cell line/MIC(S. aureus)] (Table 3). […]
(§2) Screening of compounds were performed by Oxford Antibiotic Group, Austria. […]
(§3) For cytotoxicity testing, the synthesized compounds were tested against four different cell lines: HeLa, HEK 293, MDCK and CaCo. The cells were seeded in a 96 well plate and incubated until a confluence of 80% was achieved (under physiological conditions - 37°C, 5% CO2 and 95% humidity). The samples were tested by serial dilution in triplicates with starting concentration of 250 µg/mL. After 24 and 48 hours the survival of cells was evaluated by microscope and measured with Alamar blue. IC50 values were obtained from the calibration curves. […]

MRSA [1] = assay: Broth dilution MIC against MRSA in the presence of serum albumin; assay type: cell-based; settings: Staphylococcus aureus, one-third the serum albumin concentration found in human blood
Procedure: (§4) As tetramic acids are well-known metal chelators,[1],[20] of interest was to investigate whether this loss of activity was due to metal chelation or plasma protein binding (PPB), specifically with human serum albumin (HSA).[17],[18] To answer this question, bicyclic tetramate 12a was tested against MRSA using a broth dilution assay, under standard conditions and with the addition of similar metal cations (Fe, Ca, Mg, and Zn) with concentration as that found in blood, respectively. […] Bicyclic tetramate 12a was also tested against MRSA using a broth dilution assay, under standard conditions but in the presence of one-third the serum albumin concentration as that found in human blood. […] A review has shown that PPB strongly correlates with increased hydrophobicity, and this might point to a problem with the tetramate class, which clearly depends upon hydrophobicity for their antibacterial activity, as noted above.[21]

[2] = test system: methicillin-resistant Staphylococcus aureus (MRSA); assay: MIC determination by broth dilution assay against MRSA; assay type: cell-based
Procedure: (§5) With access to these derivatives routinely available, an assessment of their antibacterial activity was made by measuring minimum inhibitory concentration (MIC) values (Table S6) against two example organisms, methicillin-resistant Staphylococcus aureus (MRSA) and E. coli. […] By contrast, a more polar substituent at the C7-position (pyran 12t) compromised the antibacterial activity (125 μg/mL). […] Compound 13b had the same activity as 12g at 1.00 μg/mL. Overall, increasing lipophilicity corresponded to higher potency against MRSA. […]
(§6) Screening of compounds were performed by Oxford Antibiotic Group, Austria. For MIC determination by broth dilution assay, the samples were tested in a primary 96 well plates screening assay, in duplicate. The compounds were diluted in Mueller Hinton Broth (MHB) for bacterial screening to a stock solution of 1000 µg/mL, serial diluted and overlaid with a microbe solution in a concentration of 10^4 CFU/ml. […]

heK-293 cell line = assay: Cytotoxicity assay (Alamar blue), heK-293; assay type: cell-based; settings: Homo sapiens, HEK293; read-out: cell lines EC50, heK-293
Procedure: as §1, §2, §3

MRSA [3] = assay: Broth dilution MIC against MRSA with added metal cations; assay type: cell-based; settings: Staphylococcus aureus, addition of Fe, Ca, Mg and Zn at concentration as found in blood
Procedure: as §4

CaCo cell line = assay: Cytotoxicity assay (Alamar blue), CaCo; assay type: cell-based; settings: Homo sapiens; read-out: cell lines EC50, CaCo
Procedure: as §1, §2, §3

Hela cell line = assay: Cytotoxicity assay (Alamar blue), Hela; assay type: cell-based, human; settings: for EC50: Homo sapiens, HeLa, read-out: cell lines EC50, Hela
Procedure: as §1
as §6, with “CFU/ml. The plates were incubated for” for “CFU/ml.”
as §3

E. coli = assay: MIC determination by broth dilution assay against E. coli; assay type: cell-based
Procedure: as §5, §6

[4] = Staphylococcus aureus, MRSA, Table 3, read-out: MIC(S. aureus)
[5] = Staphylococcus aureus, MRSA, Table S5, against S. aureus, read-out: MIC
[6] = Staphylococcus aureus, MRSA, broth dilution, read-out: MIC against MRSA
[7] = Staphylococcus aureus, MRSA, Table S6, read-out: MIC

Row | SMILES | MIC [2, 5] | MIC [2, 6] | MIC ([2]; Table S6) | MIC [2, 7] | also measured
1 | CC(C)(C)[C@@H]1O[C@H](c2ccc(F)cc2)[C@H]2C(O)=C(C(=O)NC34CC5CC(CC(C5)C3)C4)C(=O)N21 (mixture of isomers) [compound 20] | – | 1 µg/mL | – | 1 µg/mL | MIC ([2]; Table S5, against S. aureus): 1.0 µg/mL
2 | CC(C)(C)[C@@H]1O[C@H](c2ccc(Cl)cc2)[C@H]2C(O)=C(C(=O)NC34CC5CC(CC(C5)C3)C4)C(=O)N21 (mixture of isomers) [compound 21] | – | 7.8 µg/mL | – | 7.8 µg/mL | MIC ([2]; Table S5, against S. aureus): 7.8 µg/mL
3 | CC(C)(C)[C@@H]1O[C@H](c2ccc(Br)cc2)[C@H]2C(O)=C(C(=O)NC34CC5CC(CC(C5)C3)C4)C(=O)N21 (mixture of isomers) [compound 22] | – | 0.49 µg/mL | – | 0.49 µg/mL | MIC ([2]; Table S5, against S. aureus): 0.49 µg/mL
4 | CCOC(=O)C1=C(O)[C@@H]2[C@@H](c3ccccc3)O[C@@H](C(C)(C)C)N2C1=O (racemic) [10a] | – | – | – | – | antibacterial activity against MRSA (in words) [2]: no activity; antibacterial activity against E. coli (in words) (E. coli): no activity
5 | CCOC(=O)C1=C(O)[C@@H]2[C@@H](c3ccc(F)cc3)O[C@@H](C(C)(C)C)N2C1=O (racemic) [10c] | – | – | – | 31.3 µg/mL (≈ 86.1 µM) | EC50 (MDCK cell line): 62.5 µg/mL (≈ 172 µM); MIC [2, 4]: 31.3 µg/mL (≈ 86.1 µM); EC50 (heK-293 cell line): 62.5 µg/mL (≈ 172 µM); EC50 (CaCo cell line): 62.5 µg/mL (≈ 172 µM); EC50 (Hela cell line): 31.3 µg/mL (≈ 86.1 µM)
6 | CCOC(=O)C1=C(O)[C@@H]2[C@@H](c3ccc(Cl)cc3)O[C@@H](C(C)(C)C)N2C1=O (racemic) [10d] | – | – | – | 15.6 µg/mL (≈ 41.1 µM) | EC50 (MDCK cell line): 62.5 µg/mL (≈ 165 µM); MIC [2, 4]: 15.6 µg/mL (≈ 41.1 µM); EC50 (heK-293 cell line): 31.3 µg/mL (≈ 82.4 µM); EC50 (CaCo cell line): 31.3 µg/mL (≈ 82.4 µM); EC50 (Hela cell line): 31.3 µg/mL (≈ 82.4 µM)
7 | CCOC(=O)C1=C(O)[C@@H]2[C@@H](c3ccc(Br)cc3)O[C@@H](C(C)(C)C)N2C1=O (racemic) [10e] | – | – | – | 15.6 µg/mL (≈ 36.8 µM) | EC50 (MDCK cell line): 62.5 µg/mL (≈ 147 µM); MIC [2, 4]: 15.6 µg/mL (≈ 36.8 µM); EC50 (heK-293 cell line): 62.5 µg/mL (≈ 147 µM); EC50 (CaCo cell line): 62.5 µg/mL (≈ 147 µM); EC50 (Hela cell line): 31.3 µg/mL (≈ 73.8 µM)

Second part, led by results:

Row | MIC [2, 5] | MIC [2, 6] | MIC ([2]; Table S6) | MIC [2, 7] | SMILES | also measured
8 | 0.25 µg/mL | 0.25 µg/mL | 0.25 µg/mL | – | CC(C)(C)[C@@H]1O[C@H](c2ccccc2)[C@H]2C(O)=C(C(=O)NC34CC5CC(CC(C5)C3)C4)C(=O)N21 (mixture of isomers) [12a] | EC50 (MDCK cell line): 7.8 µg/mL; MIC (MRSA [1]): 7.81 µg/mL; MIC [2, 4]: 0.3 µg/mL; MIC ([2]; Staphylococcus aureus, MRSA, broth dilution assay, standard conditions (control of metal cation experiment), read-out: MIC against MRSA, standard conditions): 0.49 µg/mL; EC50 (heK-293 cell line): 31.3 µg/mL; MIC (MRSA [3]): 0.24 µg/mL; EC50 (CaCo cell line): 15.6 µg/mL; therapeutic ratio / selectivity for bacteria over the Hela cell line (Hela cell line; EC50 Hela cell line/MIC(S. aureus)): 26 fold; EC50 (Hela cell line): 7.8 µg/mL
9 | – | 3.9 µg/mL | – | 3.9 µg/mL | Cc1ccc([C@H]2O[C@@H](C(C)(C)C)N3C(=O)C(C(=O)NC45CC6CC(CC(C6)C4)C5)=C(O)[C@H]23)cc1 (mixture of isomers) [13a] | MIC ([2]; Table S5, against S. aureus): 3.9 µg/mL
10 | 7.8 µg/mL (≈ 19.9 µM) | 7.8 µg/mL (≈ 19.9 µM) | 7.8 µg/mL (≈ 19.9 µM) | – | CC(C)(C)[C@@H]1O[C@H](c2ccccc2)[C@H]2C(O)=C(C(=O)Nc3ccccc3)C(=O)N21 (racemic) [12b] | –
11 | 3.9 µg/mL (≈ 8.27 µM) | 3.9 µg/mL (≈ 8.27 µM) | 3.9 µg/mL (≈ 8.27 µM) | – | CC(C)(C)[C@@H]1O[C@H](c2ccccc2)[C@H]2C(O)=C(C(=O)Nc3ccc(Br)cc3)C(=O)N21 (racemic) [12c] | –
12 | 3.9 µg/mL (≈ 8.92 µM) | 3.9 µg/mL (≈ 8.92 µM) | 3.9 µg/mL (≈ 8.92 µM) | – | CC(C)(C)[C@@H]1O[C@H](c2ccccc2)[C@H]2C(O)=C(C(=O)Nc3ccc([N+](=O)[O-])cc3)C(=O)N21 (racemic) [12d] | antibacterial activity against MRSA (in words) [2]: good bioactivity
13 | 1 µg/mL (≈ 2.17 µM) | 1 µg/mL (≈ 2.17 µM) | 1.0 µg/mL (≈ 2.17 µM) | – | CC(C)(C)[C@@H]1O[C@H](c2ccccc2)[C@H]2C(O)=C(C(=O)Nc3ccc(C(F)(F)F)cc3)C(=O)N21 (racemic) [12e] | –
14 | 1 µg/mL (≈ 2.27 µM) | 1 µg/mL (≈ 2.27 µM) | 1.0 µg/mL (≈ 2.27 µM) | – | Cc1cc(Cl)ccc1NC(=O)C1=C(O)[C@@H]2[C@@H](c3ccccc3)O[C@@H](C(C)(C)C)N2C1=O (racemic) [12g] | –
15 | 3.9 µg/mL (≈ 8.85 µM) | – | 3.9 µg/mL (≈ 8.85 µM) | – | Cc1ccc(NC(=O)C2=C(O)[C@@H]3[C@@H](c4ccccc4)O[C@@H](C(C)(C)C)N3C2=O)c(Cl)c1 (racemic) [12h] | –
